Experimental data: patent US20220024882A1, “NOVEL TUMOR ANTIGEN BINDING AGENTS AND USES THEREOF” (ITM Isotopen Technologien München AG, priority 2018, published 2022)
Values joined by “and” are separate entries in the source; they are usually repeats but may differ in a detail not shown here. Equal entries are not always repeated.

Key:
[1] = system: PSMA-positive PC-3 PIP tumor-bearing mice; experiment: In vivo therapy study; parameters: species or system athymic nude BALB/c mice; settings: for first mouse of group euthanized / median survival / TGDI5 (tumor growth delay index, 5-fold increase of tumor size): 1 nmol per mouse; for TGDI5 (tumor growth delay index, 5-fold increase of tumor size): controls = 1.0
Method: Mice were obtained from Charles River Laboratories, Sulzfeld, Germany, at the age of 5-6 weeks. Female, athymic nude BALB/c mice were subcutaneously inoculated with PSMA-positive PC-3 PIP cells (4×10^6 cells in 100 μL Hank's balanced salt solution (HBSS)) on the right shoulder. Six days later, the tumors reached a size of about 30-160 mm^3 suitable for the performance of the in vivo therapy study. Mice were euthanized when a predefined endpoint criterion was reached or when the study was finalized at Day 84. Endpoint criteria were defined as (i) body weight loss of >15%, (ii) a tumor volume of >800 mm^3 (iii) a combination of body weight loss of >10% and a tumor volume of >700 mm^3 or (iv) signs of unease and pain or a combination thereof.
Six days after subcutaneous inoculation of 4×10^6 PC-3 PIP tumor cells inoculation, three groups with statistically similar body weight and tumor volumes were intravenously injected. One group was injected with only the vehicle (saline containing 0.05% bovine serum albumin (BSA); Group A; n=6), and another two groups with ^177Lu-Ibu-DAB-PSMA (Group B: 2 MBq, 1 nmol (n=6) and Group C: 5 MBq, 1 nmol (n=6)) at Day 0 of the therapy study (Table 7). The monitoring of mice and the assessment of the therapy study was conducted as described by Eiber et al., J. Nucl. Med., 2017, 58 (Suppl. 2) 67S-76S). In short, the mice were monitored by measuring body weight and tumor size every second day over a period of 12 weeks. The relative body weight (RBW) was defined as [BWx/BW0], where BWx is the body weight in grams at a given Day x and BW0 is the body weight in grams at Day 0. The tumor dimensions were determined by measuring the longest tumor axis (L) and its perpendicular axis (W) with a digital caliper. The tumor volume (V) was calculated according to the equation [V=0.5×(LW^2)]. The relative tumor volume (RTV) was defined as [TVx/TV0], where TVx is the tumor volume in mm^3 at a given day x, and TV0 is the tumor volume in mm^3 at Day 0.
The efficacy of the radionuclide therapy was expressed as the tumor growth delay (TGDx), which was calculated as the time required for the tumor volume to increase x-fold over the initial volume at Day 0. The tumor growth delay index [TGDIx=TGDx(T)/TGDx(C)] was calculated as the TGDx ratio of treated mice (T) over the TGDx average of control mice (C) for a 5-fold (x=5, TGD5) increase of the initial tumor volume. The median survival was calculated using GraphPad Prism software (version 7). Survival of mice was assessed using Kaplan-Meier curves to determine median survival of mice of each group using Graph Pad Prism software (version 7).

[2] = system: PC-3 PIP/flu tumor-bearing mice; experiment: Biodistribution study in PC-3 PIP/flu tumor-bearing mice; format: in vivo, athymic nude Balb/c mice; settings: for PC-3 flu Tumor: PSMA-negative tumor xenograft; for PC-3 flu Tumor / PC-3 PIP Tumor: mice; for PC-3 PIP Tumor: PSMA-positive tumor xenograft
Method: (§1) In vivo experiments were approved by the local veterinarian department and conducted in accordance with the Swiss law of animal protection. Mice were obtained from Charles River Laboratories, Sulzfeld, Germany, at the age of 5-6 weeks. Female, athymic nude Balb/c mice were subcutaneously inoculated with PSMA-positive PC-3 PIP cells (6×10^6 cells in 100 μL Hank's balanced salt solution (HBSS) with Ca^2+/Mg^2+) on the right shoulder and with PSMA-negative PC-3 flu cells (5×10^6 cells in 100 μL HBSS Ca^2+/Mg^2+) on the left shoulder. Two weeks later, the tumors reached a size of about 80-300 mm^3 suitable for the performance of the biodistribution studies.
Biodistribution studies were performed 12-15 days after PC-3 PIP/flu tumor cell inoculation. […] The radioligands were injected in a lateral tail vein in a volume of 100-200 μL. Mice were euthanized at different time points after injection (p.i.) of the radioligands. Selected tissues and organs were collected, weighed and measured using a γ-counter. The results were decay-corrected and listed as a percentage of the injected activity per gram of tissue mass (% IA/g) (Table 3 and 4).
Mice were obtained from Charles River Laboratories, Sulzfeld, Germany, at the age of 5-6 weeks. Female, athymic nude BALB/c mice were subcutaneously inoculated with PSMA-positive PC-3 PIP cells (6×10^6 cells in 100 μL Hank's balanced salt solution (HBSS)) on the right shoulder and with PSMA-negative PC-3 flu cells (5×10^6 cells in 100 μL HBSS) on the left shoulder. Two weeks later, the tumors reached a size of about 80-300 mm^3 suitable for the performance of the biodistribution and imaging studies.
Biodistribution studies were performed 12-15 days after PC-3 PIP/flu tumor cell inoculation. ^177Lu-Ibu-sPSMA was diluted in 0.9% NaCl containing 0.05% bovine serum albumin (BSA) to prevent adhesion to the vial and syringe material. The radioligand was injected in a lateral tail vein in a volume of 100 μL. Mice were euthanized at different time points after injection (p.i.) of the radioligand. Selected tissues and organs were collected, weighed and measured using a γ-counter. The results were decay-corrected and listed as a percentage of the injected activity per gram of tissue mass (% IA/g) (Table 6, FIG. 18).

[3] = Whole-body activity measurements, tumor-bearing mice; format: in vivo, athymic nude Balb/c mice; settings: 4 h p.i., 30 MBq, 1 nmol i.v., activity right after injection = 100%
Method: as §1, with “imaging” for “biodistribution”
The single radioligands (specific activity: 30 MBq/nmol) were diluted in 0.9% NaCl containing 0.05% bovine serum albumin (BSA) and i.v. injected into PC-3 PIP/flu tumor bearing mice (30 MBq, 1 nmol, 100 μL) for SPECT/CT imaging purposes. The mice were measured in a dose calibrator at 4 h, 24 h, 48 h and 72 h p.i., respectively.

[4] = Whole-body activity measurements, non-tumor bearing mice; format: in vivo; settings: 4 h after injection, 25 MBq, 1 nmol i.v.
Method: All albumin-binding radioligands (molar activity: 25 MBq/nmol) were diluted in 0.9% NaCl containing 0.05% BSA and i.v. injected into non-tumor bearing mice (25 MBq, 1 nmol, 100 μL). The mice were measured in a dose calibrator at various time-points up to 56 h p.i. The radioligands were compared with previously obtained data from ^177Lu-PSMA-617.

[5] = 4 h p.i., PC-3 PIP/flu tumor-bearing mice
[6] = 24 h p.i., PC-3 PIP/flu tumor-bearing mice

## CC(C)Cc1ccc(C(C)C(=O)NC(CCN)C(=O)NCCCCC(NC(=O)CN2CCN(CC(=O)O)CCN(CC(=O)O)CCN(CC(=O)O)CC2)C(=O)NCC2CCC(C(=O)NC(Cc3ccc4ccccc4c3)C(=O)NCCCCC(NC(=O)NC(CCC(=O)O)C(=O)O)C(=O)O)CC2)cc1 (stereo not shown) [^177Lu-Ibu-DAB-PSMA, metal not drawn]
[1]; 2 MBq
  first mouse of group euthanized: 26 days
  median survival: 34 days
  TGDI5 (tumor growth delay index, 5-fold increase of tumor size): 1.6 and 1.6 ± 0.4
[1]; 5 MBq per mouse
  average relative body weight at the time of euthanasia: 1.06±0.10
  day on which the two mice with tumor regrowth reached the endpoint: 70 days and 82 days
[1]; 5 MBq per mouse, n=6
  mice of the group in which the tumors disappeared entirely: four
  mice still alive at the end of the study at Day 84: four
[1]; 5 MBq
  first mouse of group euthanized: 70 days
  TGDI5 (tumor growth delay index, 5-fold increase of tumor size): not defined
[1]; 5 MBq, study end Day 84
  median survival: undefined
[2]; [5]
  Blood: 3.66 ± 0.45 % IA/g
  Bone: 0.62 ± 0.08 % IA/g
  Heart: 1.32 ± 0.10 % IA/g
  Intestines: 0.71 ± 0.05 % IA/g
  Kidneys: 19.4±1.84 % IA/g
  Liver: 1.50 ± 0.12 % IA/g
  Lung: 2.40 ± 0.31 % IA/g
  Muscle: 0.54 ± 0.09 % IA/g
  Salivary glands: 0.86 ± 0.38 % IA/g
  Spleen: 1.14 ± 0.11 % IA/g
  Stomach: 0.62 ± 0.12 % IA/g
  Tumor-to-blood: 18.2 ± 2.69
  Tumor-to-kidney: 3.01 ± 0.49
  Tumor-to-liver: 44.6 ± 8.41
[2]; 4 h p.i.
  PC-3 flu Tumor: 1.19 ± 0.30 % IA/g
  PC-3 PIP Tumor: 66.2 ± 11.0 % IA/g
[2]; [6]
  Bone: 0.09 ± 0.02 % IA/g
  Heart: 0.10 ± 0.01 % IA/g
  Intestines: 0.11 ± 0.03 % IA/g
  Kidneys: 6.00±0.68 % IA/g
  Liver: 0.56 ± 0.10 % IA/g
  Lung: 0.21 ± 0.03 % IA/g
  Muscle: 0.05 ± 0.01 % IA/g
  Salivary glands: 0.56 ± 0.37 % IA/g
  Spleen: 0.32 ± 0.03 % IA/g
  Stomach: 0.18 ± 0.13 % IA/g
  Tumor-to-blood: 337 ± 40.4
  Tumor-to-kidney: 8.88 ± 0.99
  Tumor-to-liver: 98.3 ± 21.1
[2]; 24 h p.i.
  PC-3 flu Tumor: 0.17 ± 0.01 % IA/g
  PC-3 PIP Tumor: 52.4 ± 2.35 % IA/g
[3]
  whole-body retention of radioactivity: 17%
[4]
  whole-body retained activity: 18%
